Patent publication US6528042B1, “Compositions of flavonoids for use as cytoprotectants and methods of making and using them” (Galileo Laboratories, Inc., priority 1999, dated 2003)

How the values were obtained:
[1] = cited from earlier work
[2] = tested on: Oxidatively competent cells; assay: SYTOX cell death assay in oxidatively competent cells treated with antimycin A; type: cell-based
Description: Oxidatively competent cells are prepared as described in Example 1. and Example 2.A and are seeded onto 96-well plates at 1×10^3/well or 2.5×10^3/well as passage 15. The cells are grown in DMEM with 10% FBS and 1.5 g/L sodium bicarbonate for 24 or 48 hours to reach 85% confluence. The cells are washed once with HBSS and then 100 μl of HBSS containing different concentration of AA (Sigma, Cat #A 8674) is added to the cells. AA is dissolved in DMSO to make a stock solution of 50 mM, then diluted with HBSS to 25, 12.5, 6.25, 3.125, and 1.56 μM for dose-response curves. The cells, with or without AA, are incubated at 37° C. in a 5% CO2 humidified incubator for 1 to 5 hours. The concentration of AA is chosen to induce 75% or 100% cell death as a screening dose to test the effect of agents to protect against AA- induced cell toxicity. The concentration of agents used for screening will be dependent upon the agents. Certain control groups contain 100 μl of HBSS only.
(§1) SYTOX Green nucleic acid stain is a high-affinity nucleic acid stain that easily penetrates cells with a compromised plasma membrane but will not cross the membrane of live cells. The nucleic acids of dead cells fluoresce bright green at 524 nm when excited with the 488 nm spectral source or with any other 450-500 nm source. […] In the cell viability assay chemical ischemia is created in cells and then cells are incubated with the SYTOX dye. The compound antimycin is used to simulate ischemia at the same time as stimulating the cells with forskolin. […] The assay is performed on cells grown in 96-well format allowing high throughput screening of compounds.
(§2) Compound(s) are mixed with the 1 μM SYTOX working solution and added to the washed cell culture wells. Fluorescence is measured at designated time points (488 nm excitation and 530 nm emission). All of the sample readings subtract the background readings, which is cell-free wells only containing HBSS buffer with SYTOX green dye. The data is compared to non-treated cells (control) and is expressed as mean±S.D. from 4 culture wells. SYTOX Green fluorescence units obtained from each group are corrected for basal fluorescence (cell-free wells with only HBSS and fluorescence reagent). Data are represented as mean±SD. A paired t-test is performed comparing treated groups (Toxin+Agent) with non-treated groups (Toxin only) after subtracting the control groups (HBSS only) for each data set. Comparisons among groups are statistically evaluated by two-tailed t-test (Graphpad Prism Software, version 2.0). Differences are considered significant at P<0.05.
Oxidatively competent cells were treated simultaneously with hesperetin, chrysin and 100 nM antimycin A2.C. The cells were treated with various low concentrations of hesperetin and various concentrations of chrysin (Sigma Chemical Co., cat. #C3018). Hesperetin, chrysin and antimycin A were mixed together before treating the cells. Cell viability was measured at time points up to 5 hours using SYTOX, as described in Example 2.F.
In experiments carried out in support of the invention, various concentrations of diosmin and alpha-tocopherol were tested for synergistic ability to ameliorate disruption of energy metabolism secondary to stress. Oxidatively competent cells were treated simultaneously with diosmin, alpha-tocopherol and antimycin A2.C. The cells were treated with various low concentrations of diosmin (Sigma Chemical Co., cat. #D3525) and various low concentrations of (+/−) alpha-tocopherol. Diosmin, alpha-tocopherol and antimycin were mixed together before treating cells. Cell viability was measured 4 hours after treatment using SYTOX. […] Likewise, the combination of disomin (11-100 μM) with 1.1 μg/ml (+/−) alpha tocopherol was synergistic. […] Diosmin alone provided no protection at a concentration of 100 μM. […] A combination of 100 μM diosmin and 11 μg/ml (+/−) alpha tocopherol was also synergistic. […]

[3] = tested on: GCL1 cells; assay: SYTOX cell death assay in GCL1 cells treated with antimycin A (chemical ischemia); type: cell-based, rat hepatoma cells (fao) / human fibroblasts (W138) hybrid
Excerpt: At greater than 80% confluence, more than 80% of the cells participate in forming one or more phaselucent, spherical structures that are located between cells, termed bile canicular-like spaces. In contrast to the majority of cell lines maintained in culture which are fermentative, GCL1 cells, when at their maximal density and polarity, are highly oxidative (i.e., they can be readily killed by inhibitors of oxidative phosphorylation or electron transport uncouplers). […] These cells are amenable to use in high throughput screening (HTS) technology.
The cells, with or without AA, are incubated at 37° C. in a 5% CO2 humidified incubator for 1 to 5 hours. […] The concentration of agents used for screening will be dependent upon the agents. Certain control groups contain 100 μl of HBSS only.
as §1
Aliquot at 100 μl. This 10 mM stock is then diluted to 1 mM with DMSO and aliquoted at 25 μL. Both the 10 mM and the 1 mM are stored at −20° C. until use. […] Aliquot at 100 μl and store at −20° C. until use. iv.) HBSS-SYTOX-FORSKOLIN-ANTIMYCIN (H-S-F-A) solution: H-S-F-A solution is made up fresh prior to each assay in sterile 175 ml or 225 ml Falcon bottles. […]
Cells are grown in 96-well black plates (with or without clear bottoms) at a density of 1000 cells per well for 24 hours. The necessary number of 96-well plates containing the specific cell type are obtained and placed in the laminar flow safety cabinet. A sterile microtiter basin is filled with the appropriate volume of pre-warmed 1×HBSS. Using aseptic technique and an 8-channel aspirator, the media is carefully removed from the cells and replaced with 200 μl of 1×HBSS. This is done as quickly as possible to prevent the cells drying out. The plates are then placed in the humidified 37° C. incubators of the Biomek 2000 Side Loader. Four plates are washed at a time so as to minimize the time that the cells are sitting in 1×HBSS prior to addition of the H-S-A-compound test solution.
as §2
Hesperetin, diosmin, luteolin and quercetin were tested individually for their ability to counteract disruptions of normal energy metabolism. Flavonoids were commercially obtained, generally from Sigma Chemical Co., St. Louis, Mo., and/or Aldrich Chemical Co., Milwaukee, Wis.

[4] = 25 μM hesperetin alone, 4 hours, control cell death 82.9%

SMILES: COc1ccc([C@@H]2CC(=O)c3c(O)cc(O)cc3O2)cc1O [Hesperetin, (S)-2,3-dihydro-5,7-dihydroxy-2-(3-hydroxy-4-methoxyphenyl)-4H-1-benzopyran-4-one]
- abnormalities observed for a week ([1]; administered orally to mice at 100 mg/kg (U.S. Pat. No. 5,650,433)): no abnormalities were observed
- effects on liver function ([1]; tests using mice): no adverse effects on liver function
- toxicity or mitogenicity ([1]; tests using mice): little toxicity or mitogenicity
- Cell Death ([2]; 50 μM hesperetin alone, control 72.9%): 73.4%
- protection when tested separately ([2]; 2 and 50 μM hesperetin, four hours): generally ineffective
- Cell Death [3, 4]: 81.1%
- reduction in cell death [3, 4]: 1.8%
- protection ([3]; 50 μM Hesperetin alone): 14.4%
- Cell Death ([3]; 50 μM Hesperetin alone, 4 hours, control 82.1%): 81.3%
- Cell Death ([3]; 50 μM hesperetin alone, 4 hours, control 97.4%): 92.6%
- protection above control level ([3]; 75 μM Hesperetin by itself): 7.5%
- Cell Death ([3]; Hesperetin 1.9 μM, antimycin A 100 nM, time 0:00 hr:min): 0.0% ± 0.0
- Cell Death ([3]; Hesperetin 1.9 μM, antimycin A 100 nM, time 1:45 hr:min): 0.5% ± 0.6
- Cell Death ([3]; Hesperetin 1.9 μM, antimycin A 100 nM, time 2:45 hr:min): 30.4% ± 3.3
- Cell Death ([3]; Hesperetin 1.9 μM, antimycin A 100 nM, time 3:45 hr:min): 66.0% ± 3.1
- Cell Death ([3]; Hesperetin 1.9 μM, antimycin A 100 nM, time 4:45 hr:min): 81.5% ± 1.4
- Cell Death ([3]; Hesperetin 6 μM, antimycin A 100 nM, time 0:00 hr:min): 0.0% ± 0.0
- Cell Death ([3]; Hesperetin 6 μM, antimycin A 100 nM, time 1:45 hr:min): 1.8% ± 0.8
- Cell Death ([3]; Hesperetin 6 μM, antimycin A 100 nM, time 2:45 hr:min): 28.4% ± 1.5
- Cell Death ([3]; Hesperetin 6 μM, antimycin A 100 nM, time 3:45 hr:min): 65.0% ± 1.5
- Cell Death ([3]; Hesperetin 6 μM, antimycin A 100 nM, time 4:45 hr:min): 81.8% ± 0.7
- Cell Death ([3]; Hesperetin 17 μM, antimycin A 100 nM, time 0:00 hr:min): 0.0% ± 0.0
- Cell Death ([3]; Hesperetin 17 μM, antimycin A 100 nM, time 2:45 hr:min): 27.2% ± 2.0
- Cell Death ([3]; Hesperetin 17 μM, antimycin A 100 nM, time 3:45 hr:min): 64.1% ± 0.6
- Cell Death ([3]; Hesperetin 17 μM, antimycin A 100 nM, time 4:45 hr:min): 80.3% ± 1.0
- Cell Death ([3]; Hesperetin 50 μM, antimycin A 100 nM, time 0:00 hr:min): 0.0% ± 0.0
- Cell Death ([3]; Hesperetin 50 μM, antimycin A 100 nM, time 1:45 hr:min): 2.3% ± 0.3
- Cell Death ([3]; Hesperetin 50 μM, antimycin A 100 nM, time 2:45 hr:min): 14.4% ± 2.2
- Cell Death ([3]; Hesperetin 50 μM, antimycin A 100 nM, time 3:45 hr:min): 53.1% ± 5.7
- Cell Death ([3]; Hesperetin 50 μM, antimycin A 100 nM, time 4:45 hr:min): 74.0% ± 6.2
- protective effect ([3]; concentrations of 50 μM and below): little, if any, protective effect
